According to patent US8278485B2, “Process for the production of 2-[4-(3- and 2-fluorobenzyloxy) benzylamino] propanamides” (Newron Pharmaceuticals S.p.A., priority 2006, dated 2012):

Legend:
mice [1] = assay: Amphetamine plus chlordiazepoxide-induced hyperlocomotion in mice; type: in vivo
Procedure: FIG. 1 provides total locomotor activity over 30 min. Mice were treated with ralfinamide (10; 30 and 60 mg/kg, po); or saline and returned to their home cage. After 30 min they received an injection of Amph (2.5 mg/kg; ip); Amph/CDP mixture (2.5 and 3.125 mg/kg; ip) or saline immediately prior to be placed in the test cage. Locomotor activity was recorded for 30 min.
Amphetamine Plus Chlordiazepoxide-Induced Hyperlocomotion in Mice
The anti mania activity, predictive of efficacy in bipolar disorders, was measured using the “Amphetamine plus chlordiazepoxide-induced hyperlocomotion in mice” model according to the following procedure.
In this model, mice are treated with a mixture of d-amphetamine plus an anxiolytic dose of the benzodiazepine, chlordiazepoxide (Rushton R and Steinberg H. Nature 1966; 211: 1312-3; R. Arban, et al. Behavioural Brain Research, 158: 123-132). The model has been claimed to mimic some aspects of mania in bipolar disorder. Importantly, the hyperactivity induced by the mixture of d-amphetamine and chlordiazepoxide could be prevented by prior administration of the established mood stabilizer, lithium, as well as other mood stabilizers drugs (e.g. magnesium valproate and carbamazepine). Therefore, this model has face and predictive validity as a model of bipolar disorders and represents a valuable tool to determine, if a test compound could be a potential mood stabilizer drug candidate.
D-amphetamine (Amph) (2.5 mg/kg ip) plus chlordiazepoxide hydrochloride (CDP) (3 mg/kg ip) were administered to male Albino Swiss mice (25-32 g) in a volume of 10 ml/kg. The locomotor activity was recorded using an automated Activity Cage LE 881 (Panlab) (45×45 cm). This system detects animal movements from 2 levels of 4 side infrared sensors placed all around the square cage. Mice were pretreated with the test compound (0.5-60 mg/kg po) and 30 min later, with Amph (2.5 mg/kg ip) or Amph jointly with CDP (3 mg/kg ip) and were placed individually in the motor activity cages. The locomotor activity was measured in terms of total distance travelled (cm) over a period of 30 min. Each group consisted of 8-10 mice.
Statistical analysis: a two-way analysis of variance (ANOVA) with Amph treatment factor and drug treatment factor was performed. Bonferroni's procedure was used for multiple comparison post hoc analysis.
D-amphetamine-chlordiazepoxide administration induced a significant increase in locomotor activity.

CYP2C9 = biological target: T1, CYP2C9 (Homo sapiens, UniProt P11712); assay: Cytochrome P450 assay (Gentest Kit), CYP2C9; type: in vitro ADME; conditions: human recombinant isoenzyme
T1 construct: purchased Gentest
T1 sequence (P11712 whole entry): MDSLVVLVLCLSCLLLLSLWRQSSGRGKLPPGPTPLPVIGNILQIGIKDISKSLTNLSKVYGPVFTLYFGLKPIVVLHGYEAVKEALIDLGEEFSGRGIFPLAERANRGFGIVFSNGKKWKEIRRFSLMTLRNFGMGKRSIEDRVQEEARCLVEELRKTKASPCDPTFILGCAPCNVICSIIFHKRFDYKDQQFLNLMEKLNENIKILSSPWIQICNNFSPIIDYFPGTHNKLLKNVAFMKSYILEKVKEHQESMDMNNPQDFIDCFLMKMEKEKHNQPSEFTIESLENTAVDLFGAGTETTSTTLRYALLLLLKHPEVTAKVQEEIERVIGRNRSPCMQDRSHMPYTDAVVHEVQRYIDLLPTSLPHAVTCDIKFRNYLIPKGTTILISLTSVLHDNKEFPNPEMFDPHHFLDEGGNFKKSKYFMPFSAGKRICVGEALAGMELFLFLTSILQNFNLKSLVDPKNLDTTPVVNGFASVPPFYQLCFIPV
Procedure: (§1) Inhibition of the five most important Cytochrome P450 isoforms (CYP1A2, CYP2C9, CYP2C19, CYP2D6 and CYP3A4), involved in drug metabolism, was measured using specific substrates that become fluorescent upon CYP metabolism (Gentest Kit assay).
(§2) Compounds were tested in a 96-well plate containing incubation/NADPH regenerating buffer. Specific human recombinant isoenzymes and substrates were added and incubated at 37° C. for 15 minutes for CYP1A2/CEC, […], 45 minutes for CYP2C9/MFC and 30 minutes for the others CYP450.
7-methoxy-4-trifluoromethylcoumarin (CYP2C9),

[2] = Cytotoxicity assay in human neuroblastoma cell line SH-SY-5Y; type: cell-based; conditions: SH-SY-5Y neuroblastoma cells, 24 hours incubation, Alamar Blue, concentration inducing 50% of mortality
Procedure: Cytotoxicity Assay in Human Neuroblastoma Cell Line SH-SY-5Y
At time zero, the cells were seeded at 1.10^4/cm^2 in 96 well plates in DMEM growth medium+10% heat inactivated FBS+2 mM 1-Glutamine+100 U/mL-100 μg/mL Penicillin/Streptomycin.
After 72 hours at subconfluent phase of growth, the medium was removed and cells were incubated for 24 hours at 37° C. in 180 μl of neurobasal medium+2 mM 1-Glutamine (Life Technologies) with or without test compounds (20 μl, at least 5 concentrations in triplicate).
At the end of incubation, 20 μl of Alamar Blue dye (AlamarBlue™ Assay Kit, Promega) were directly added to the cell medium.
Four hours after, the cytotoxicity was assessed by measuring the fluorescence at 530 nm excitation and 595 nm emission using Tecan Spectrafluor plate reader.
Before and at the end of the treatment, the cultures were monitored microscopically by an Olympus IX70 inverted light microscope matched to an Image Analyzer (Image Pro Plus, 5.1) to evaluate the cellular morphology.
Results are expressed in Table 1 as concentration inducing 50% of mortality.

mice [3] = assay: Maximal Electroshock Test (MES) in mice; type: in vivo
Procedure: Maximal Electroshock Test (MES) in Mice
The maximal electroshock test (MES) is used commonly in the screening of anti-epileptic drugs in rodent models.
Animals and Apparatus: Male CD1 mice weighing 25 g were used. […] The stimulus was delivered intra-aurally through clip electrodes in mice (0.7 seconds of a 40 mA shock, with a pulse train of 80 Hz having a pulse duration of 0.4 ms). The acute effect of compounds administered intraperitoneally or orally 15-60 minutes before MES induction were examined and compared with a vehicle control group. Ten mice were studied per group. Complete suppression of the hindlimb tonic extensor component of seizures was taken as evidence of anticonvulsant activity.
The compounds of the invention were administered orally or intraperitoneally at the doses of 3-30 mg/kg.
The results are expressed in Tables 3 and 4 as % of protection.

CYP2C19 = biological target: T2, CYP2C19 (Homo sapiens, UniProt P33261); assay: Cytochrome P450 assay (Gentest Kit), CYP2C19; type: in vitro ADME; conditions: human recombinant isoenzyme
T2 construct: purchased Gentest
T2 sequence (P33261 whole entry): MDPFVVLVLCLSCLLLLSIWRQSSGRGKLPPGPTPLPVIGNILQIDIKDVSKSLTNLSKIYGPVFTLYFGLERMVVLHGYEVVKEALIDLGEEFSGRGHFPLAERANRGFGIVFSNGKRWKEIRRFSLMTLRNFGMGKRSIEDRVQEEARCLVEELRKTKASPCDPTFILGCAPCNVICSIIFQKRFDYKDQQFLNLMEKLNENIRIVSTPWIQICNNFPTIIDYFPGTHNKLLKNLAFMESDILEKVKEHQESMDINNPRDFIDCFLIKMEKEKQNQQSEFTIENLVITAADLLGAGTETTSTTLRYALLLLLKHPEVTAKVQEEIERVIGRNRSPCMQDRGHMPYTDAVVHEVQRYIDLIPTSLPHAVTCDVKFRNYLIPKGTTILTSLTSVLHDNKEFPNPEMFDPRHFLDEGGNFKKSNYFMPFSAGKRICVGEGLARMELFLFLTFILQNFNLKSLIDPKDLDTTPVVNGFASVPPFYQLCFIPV
Procedure: as §1, §2
(§3) The specific substrates were the following: 3-cyano-7-ethoxycoumarin (CYP2C19 and CYP1A2),

CYP2D6 = biological target: T3, CYP2D6 (Homo sapiens, UniProt P10635); assay: Cytochrome P450 assay (Gentest Kit), CYP2D6; type: in vitro ADME; conditions: human recombinant isoenzyme
T3 construct: purchased Gentest
T3 sequence (P10635 whole entry): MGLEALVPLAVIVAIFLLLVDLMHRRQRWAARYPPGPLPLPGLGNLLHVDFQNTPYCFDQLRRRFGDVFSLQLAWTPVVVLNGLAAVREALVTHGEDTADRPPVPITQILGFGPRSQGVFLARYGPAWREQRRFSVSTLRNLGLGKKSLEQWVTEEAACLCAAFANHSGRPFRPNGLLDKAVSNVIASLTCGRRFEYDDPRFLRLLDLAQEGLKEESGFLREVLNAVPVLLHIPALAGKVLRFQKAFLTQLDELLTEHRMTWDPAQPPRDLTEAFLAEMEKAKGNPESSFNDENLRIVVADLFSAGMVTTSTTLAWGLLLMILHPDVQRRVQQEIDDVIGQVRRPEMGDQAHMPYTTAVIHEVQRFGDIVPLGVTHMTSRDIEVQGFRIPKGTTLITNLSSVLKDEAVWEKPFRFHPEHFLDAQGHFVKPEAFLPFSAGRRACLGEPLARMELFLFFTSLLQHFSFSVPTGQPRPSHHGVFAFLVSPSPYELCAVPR
Procedure: as §1, §2
3[2(N,N-diethyl-N-mwthylamino) ethyl]-7-methoxy-4-methylcoumarin (CYP2D6)

HERG channel = HERG channel (Homo sapiens, UniProt Q12809); assay: HERG current in transfected CHO cell lines
HERG channel, sequence (Q12809 whole entry): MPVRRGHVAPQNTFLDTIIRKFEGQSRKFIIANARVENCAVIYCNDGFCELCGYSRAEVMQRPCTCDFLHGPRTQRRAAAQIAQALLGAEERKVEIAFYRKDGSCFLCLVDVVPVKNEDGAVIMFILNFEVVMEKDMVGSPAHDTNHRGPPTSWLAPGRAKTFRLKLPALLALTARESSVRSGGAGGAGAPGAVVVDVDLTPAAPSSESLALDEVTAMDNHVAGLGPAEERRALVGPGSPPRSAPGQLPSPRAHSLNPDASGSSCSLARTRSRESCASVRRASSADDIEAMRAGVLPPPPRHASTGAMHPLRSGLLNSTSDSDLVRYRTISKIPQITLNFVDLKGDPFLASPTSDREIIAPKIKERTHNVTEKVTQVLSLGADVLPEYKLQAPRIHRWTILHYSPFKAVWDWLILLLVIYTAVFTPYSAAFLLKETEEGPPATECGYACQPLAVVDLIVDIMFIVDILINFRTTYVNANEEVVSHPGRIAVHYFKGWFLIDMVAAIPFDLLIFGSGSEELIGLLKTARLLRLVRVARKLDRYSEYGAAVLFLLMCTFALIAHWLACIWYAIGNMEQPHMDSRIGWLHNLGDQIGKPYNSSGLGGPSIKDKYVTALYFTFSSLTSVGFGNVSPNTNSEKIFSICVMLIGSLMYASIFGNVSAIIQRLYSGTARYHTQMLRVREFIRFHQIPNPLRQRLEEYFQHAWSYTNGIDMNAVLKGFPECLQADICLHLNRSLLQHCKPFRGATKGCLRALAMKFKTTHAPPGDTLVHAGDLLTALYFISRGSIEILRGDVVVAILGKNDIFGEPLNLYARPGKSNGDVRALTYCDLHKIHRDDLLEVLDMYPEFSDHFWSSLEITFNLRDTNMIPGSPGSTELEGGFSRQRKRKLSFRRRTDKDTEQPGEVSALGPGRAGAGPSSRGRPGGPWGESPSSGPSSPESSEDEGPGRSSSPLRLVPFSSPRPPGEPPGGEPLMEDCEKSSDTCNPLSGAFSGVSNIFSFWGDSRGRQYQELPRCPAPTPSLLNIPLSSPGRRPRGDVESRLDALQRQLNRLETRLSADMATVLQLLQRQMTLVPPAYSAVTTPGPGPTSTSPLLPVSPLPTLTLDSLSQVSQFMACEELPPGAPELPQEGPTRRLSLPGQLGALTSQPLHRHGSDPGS
Procedure: The inhibition of HERG current was tested in CHO cells stably expressing recombinant HERG channel.
To evaluate the effect of the test compounds on HERG currents, cells were clamped at −80 Mv, depolarised to 0 mV for 5 seconds allowing activation of HERG current and repolarised to −50 mV during 5 seconds allowing HERG tail current to deactivate. This procedure was repeated at a frequency of 0.06 Hz. The current amplitude upon repolarisation (HERG tail current) was measured before and after exposure to the test compound.
Inhibition of current was calculated as the difference between the amplitude of HERG tail current amplitude measured at the end of external bath perfusion period and HERG tail current measured at the end of test compound perfusion period (when steady-state effect is reached) divided by control HERG tail current.
Drug concentration-inhibition curves were obtained by plotting tonic blocks versus drug concentrations. Dose-response curves were fitted to the tonic block data, according to the logistic equation: y=A2+(A1−A2)/[1+(x/IC50)^p].

CYP1A2 = biological target: T4, CYP1A2 (Homo sapiens, UniProt P05177); assay: Cytochrome P450 assay (Gentest Kit), CYP1A2; type: in vitro ADME; conditions: human recombinant isoenzyme
T4 construct: purchased Gentest
T4 sequence (P05177 1-516): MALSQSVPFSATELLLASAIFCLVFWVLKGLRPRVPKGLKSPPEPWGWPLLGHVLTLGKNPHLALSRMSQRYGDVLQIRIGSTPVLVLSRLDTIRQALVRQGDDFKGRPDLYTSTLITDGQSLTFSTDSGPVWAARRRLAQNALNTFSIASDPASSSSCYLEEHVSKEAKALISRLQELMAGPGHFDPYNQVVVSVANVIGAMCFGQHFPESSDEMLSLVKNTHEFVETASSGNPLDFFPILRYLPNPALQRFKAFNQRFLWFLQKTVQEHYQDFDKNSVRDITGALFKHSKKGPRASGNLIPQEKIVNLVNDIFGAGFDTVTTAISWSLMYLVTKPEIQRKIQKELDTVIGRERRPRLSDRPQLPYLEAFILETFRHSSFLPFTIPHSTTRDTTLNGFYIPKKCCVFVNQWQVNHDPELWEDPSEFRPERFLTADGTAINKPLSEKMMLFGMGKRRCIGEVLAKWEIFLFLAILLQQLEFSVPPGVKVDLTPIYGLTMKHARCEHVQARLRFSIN
Procedure: as §1, §2, §3

CYP3A4 = biological target: T5, CYP3A4 (Homo sapiens, UniProt P08684); assay: Cytochrome P450 assay (Gentest Kit), CYP3A4; type: in vitro ADME; conditions: human recombinant isoenzyme, Table 1
T5 construct: purchased Gentest
T5 sequence (P08684 whole entry): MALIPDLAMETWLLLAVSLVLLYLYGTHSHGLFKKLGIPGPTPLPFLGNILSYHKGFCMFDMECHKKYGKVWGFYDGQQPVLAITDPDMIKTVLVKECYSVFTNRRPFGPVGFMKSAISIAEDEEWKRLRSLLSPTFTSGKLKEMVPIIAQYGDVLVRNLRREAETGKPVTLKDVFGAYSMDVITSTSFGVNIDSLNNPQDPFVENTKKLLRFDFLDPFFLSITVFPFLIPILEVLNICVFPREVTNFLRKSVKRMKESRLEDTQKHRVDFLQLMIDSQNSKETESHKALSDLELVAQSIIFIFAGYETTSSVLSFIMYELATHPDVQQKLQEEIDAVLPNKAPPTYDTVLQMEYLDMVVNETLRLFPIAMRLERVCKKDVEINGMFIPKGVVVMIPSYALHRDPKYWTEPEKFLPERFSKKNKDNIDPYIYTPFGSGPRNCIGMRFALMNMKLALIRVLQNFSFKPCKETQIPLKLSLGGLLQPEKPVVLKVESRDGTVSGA
Procedure: as §1, §2
benzylphenylcoumarin (CYP3A4)

In the case of `C[C@H](NCc1ccc(OCc2ccccc2F)cc1)C(N)=O` [ralfinamide, (S)-2-[4-(2-fluorobenzyloxy)-benzylamino]propanamide], the “total locomotor activity over 30 min, Bonferroni versus Amph/CDP mixture” value (mice [1]; 30 mg/kg po) is reported as “statistical difference”, the “total locomotor activity over 30 min, Bonferroni versus Amph alone” value (mice [1]; 60 mg/kg po) is reported as “statistical difference” and the “total locomotor activity over 30 min, Bonferroni versus Amph/CDP mixture” value (mice [1]; 60 mg/kg po) is reported as “statistical difference”. The “hyperactivity induced by Amph/CDP mixture (locomotor activity)” value (mice [1]; orally administered, 30 min before Amph/CDP ip) was “significantly decreasing the hyperactivity”.
With `CS(=O)(=O)O.C[C@H](NCc1ccc(OCc2ccccc2F)cc1)C(N)=O` [Ralfinamide methanesulfonate, (S)-2-[4-(2-fluorobenzyloxy)benzylamino]propanamide methanesulfonate] the IC50 (CYP2C9) was > 40 µM, the IC50 at 24 h [2] was > 300 µM and the “MES Protection %” value (mice [3]; mice, 10 mg/kg p.o.) was 60%. For the same compound, the “MES (head blank; protection)” value (mice [3]; mice, 20 mg/kg p.o.) was 90%, the IC50 (CYP2C19) was > 40 µM and the IC50 (CYP2D6) was > 40 µM. The IC50 (HERG channel) was 18 µM and the IC50 (CYP1A2) was > 40 µM.
In the case of `C[C@H](NCc1ccc(OCc2ccccc2F)c(Cc2ccccc2F)c1)C(N)=O` [Impurity IId, (S)-2-[3-(2-fluorobenzyl)-4-(2-fluorobenzyloxy)-benzylamino]propanamide methanesulfonate], the IC50 (CYP3A4) is reported as 0.05 µM, the IC50 (CYP2C9) is reported as 8.01 µM and the IC50 at 24 h [2] is reported as 15 µM. The “MES Protection %” value (mice [3]; mice, 10 mg/kg p.o.) was 0%, the “MES dead/live” value (mice [3]; mice, 10 mg/kg p.o.) was 0/10 and the “MES (head blank; protection)” value (mice [3]; mice, 20 mg/kg p.o.) was 0%. For the same compound, the “MES dead/live” value (mice [3]; mice, 20 mg/kg p.o.) was 0/10, the “protection from convulsions in MES test” value (mice [3]; mice, p.o. at 10 and 20 mg/kg) was “doesn't protect” and the IC50 (CYP2C19) was 1.89 µM. For the same compound, the IC50 (CYP2D6) was 0.92 µM, the IC50 (HERG channel) was 2.66 µM and the IC50 (CYP1A2) was > 40 µM.
With `CS(=O)(=O)O.C[C@H](NCc1ccc(OCc2cccc(F)c2)cc1)C(N)=O` [Safinamide methanesulfonate, (S)-2-[4-(3-fluorobenzyloxy)benzylamino]propanamide methanesulfonate] the IC50 (CYP2C9) was > 40 µM, the IC50 at 24 h [2] was 248 µM and the MES % protection (mice [3]; mice, 3 mg/kg ip) was 50%. For the same compound, the MES % protection (mice [3]; mice, 10 mg/kg ip) was 100%, the MES % protection (mice [3]; mice, 30 mg/kg ip) was 100% and the IC50 (CYP2C19) was 23.9 µM. The IC50 (CYP2D6) was > 40 µM, the IC50 (HERG channel) was 27 µM and the IC50 (CYP1A2) was > 40 µM.
`C[C@H](NCc1ccc(OCc2cccc(F)c2)c(Cc2cccc(F)c2)c1)C(N)=O` [Impurity IIc, (S)-2-[3-(3-fluorobenzyl)-4-(3-fluorobenzyloxy)-benzylamino]propanamide methanesulfonate] showed an IC50 (CYP3A4) of 0.05 µM, an IC50 (CYP2C9) of 7.29 µM and an IC50 at 24 h [2] of 6.7 µM. The MES % protection (mice [3]; mice, 3 mg/kg ip) was 0%, the MES dead/live (mice [3]; mice, 3 mg/kg ip) was 5/10 and the MES % protection (mice [3]; mice, 10 mg/kg ip) was 0%. For the same compound, the MES dead/live (mice [3]; mice, 10 mg/kg ip) was 4/10, the MES % protection (mice [3]; mice, 30 mg/kg ip) was 0% and the MES dead/live (mice [3]; mice, 30 mg/kg ip) was 4/10. The “pharmacological activity, i.e. protection from convulsions, in MES test” value (mice [3]; mice, ip, from 3 mg/kg) was “without any pharmacological activity”, the “mortality in the mice MES test” value (mice [3]; starting from 3 mg/kg ip) was “increases” and the IC50 (CYP2C19) was 0.42 µM. The IC50 (CYP2D6) was 0.77 µM, the IC50 (HERG channel) was 1.2 µM and the IC50 (CYP1A2) was > 40 µM.
